The subject of series [1] is A2780 ovarian cancer subcutaneous xenograft. The series is described as follows: A2780 ovarian cancer subcutaneous xenograft model. The note with it: AVASTIN 5 mg/kg on day 4, mice. The format is in vivo. As for the experimental part:
The object of this study was to investigate the tumour growth inhibitory effect of AVASTIN® (bevacizumab) in an A2780 ovarian cancer subcutaneous xenograft model. Mice were treated on day 4 with AVASTIN® (bevacizumab) (5 mg/kg). The chemosensitising effect of PXD-101 in combination with AVASTIN® (bevacizumab) was also investigated.

Series [2] relates to histone H4 acetylation in peripheral blood mononuclear cells. The series is described as follows: Phase 1 study, pharmacodynamics: acetylation of histones from PBMNC by Western blotting. The format is in vivo, human. On the procedure:
(§1) PXD-101 was administered as a 30-minute intravenous (IV) infusion daily for 5-days every 3-weeks. In a subgroup of patients, PXD-101 was administered orally once, twice or thrice on day 1 only, in course 2 or 3. Acetylation of histones extracted from peripheral blood mononuclear cells (PBMNC) was measured by Western blotting. The PK/PD profile of intravenous and oral PXD-101 was evaluated.
(In general: A western blot detects proteins with antibodies after separation by electrophoresis.)

For series [3], the system named is diverse tumor cell lines. Put plainly: Proliferation of diverse tumor cell lines. In kind it is cell-based.
Series [4] can be described thus: Phase 1 dose escalation study, pharmacokinetics. The format is in vivo, human. The note with it: for half-life / Cmax / bioavailability: human, in vivo. As for the experimental part:
(§2) A Phase 1 open label, dose escalation, safety, pharmacokinetics (PK), and pharmacodynamics (PD) study of PXD-101 was conducted in patients with advanced cancers.
as §1

The subject of series [5] is six multiple myeloma cell lines, three plasma cell leukemia cell lines and one plasmacytoma. Put plainly: CellTiter-Glo cell viability assay, all ten cell lines. The format is cell-based. To be noted: 72 h. On the procedure: (§3) Percent activity (% activity), was calculated for each test compound as: % activity={(S^c−B)/(S^o−B)}×100
(§4) wherein S^c denotes signal measured in the presence of the compound being tested, S^o denotes signal measured in the absence of the compound being tested, and B denotes the background signal measured in blank wells containing medium only. The IC50 corresponds to the drug concentration which achieves 50% activity of untreated control cultures. IC50 values were calculated using the software package Prism 3.0 (GraphPad Software Inc., San Diego, Calif.) with variable slope option.
(§5) This example reports the effects of PXD-101 on six distinct multiple myeloma cell lines, three plasma cell leukemia cell lines and one plasmacytoma. The cells were incubated with PXD-101 for 72 hours in vitro, and their viability measured by the CellTiter-Glo assay.
A general note: ATP-based viability assays read luminescence as a measure of living cells.

Series [6] can be described thus: Phase 1 dose escalation study, safety. In kind it is in vivo, human. On the procedure: as §2, §1
The results of this study are as follows: 34 patients (median age 58 years, range 28-74; 19 male, all ECOG PS≤2) have been treated with a total of 103 cycles of PXD-101 (median 2; range 1 to 13) at 6 dose levels: 150 mg/m^2 (4 patients), 300 mg/m^2 (4 patients), 600 mg/m^2 (6 patients), 900 mg/m^2 (3 patients), 1000 mg/m^2 (12 patients) and 1200 mg/m^2 (5 patients).

Series [7] concerns EJM multiple myeloma cell line. Put plainly: CellTiter-Glo cell viability assay. The format is cell-based. The note with it: Homo sapiens, 72 h, read-out: PXD-101 IC50. On the procedure:
as §3, §4, §5

The subject of series [8] is RPMI-8226 multiple myeloma cell line. Put plainly: CellTiter-Glo cell viability assay. The note with it: Homo sapiens, 72 h, read-out: PXD-101 IC50. The format is cell-based. As for the experimental part:
as §3, §4, §5

In series [9] the test system is OPM-2 multiple myeloma cell line. The series is described as follows: CellTiter-Glo cell viability assay. The note with it: Homo sapiens; OPM-2, MM t(4;14)(p16;q32); 72 h; read-out: PXD-101 IC50. The format is cell-based. On the procedure: as §3, §4, §5
Series [10] relates to KMS-12-BM multiple myeloma cell line. Put plainly: CellTiter-Glo cell viability assay. To be noted: Homo sapiens, MM t(11;14)(q13;q32), 72 h, read-out: PXD-101 IC50. In kind it is cell-based. On the procedure:
as §3, §4, §5

Series [11] concerns LP-1 multiple myeloma cell line. The series is described as follows: CellTiter-Glo cell viability assay. In kind it is cell-based. The note with it: Homo sapiens, LP-1, MM t(4;14)(p16;q32), 72 h, read-out: PXD-101 IC50. As for the experimental part:
as §3, §4, §5

The subject of series [12] is AMO-1 plasmacytoma cell line. The series is described as follows: CellTiter-Glo cell viability assay. The format is cell-based. To be noted: Homo sapiens, AMO1, 72 h, read-out: PXD-101 IC50. As for the experimental part: as §3, §4, §5
Series [13] concerns L-363 plasma cell leukemia cell line. The series is described as follows: CellTiter-Glo cell viability assay. In kind it is cell-based. To be noted: Homo sapiens, 72 h, read-out: PXD-101 IC50. As for the experimental part: as §3, §4, §5
The test system of series [14] is U266 multiple myeloma cell line. The series is described as follows: CellTiter-Glo cell viability assay. The format is cell-based. To be noted: Homo sapiens, U-266, 72 h, read-out: PXD-101 IC50. On the procedure:
as §3, §4, §5

Series [15] concerns SK-MM-2 plasma cell leukemia cell line. The series is described as follows: CellTiter-Glo cell viability assay. The format is cell-based. The note with it: Homo sapiens; SK-MM-2, plasma cell leukemia t(11;14)(q13;q32); 72 h; read-out: PXD-101 IC50. On the procedure:
as §3, §4, §5

In series [16] the test system is KARPAS-620 plasma cell leukemia cell line. Put plainly: CellTiter-Glo cell viability assay. In kind it is cell-based. The note with it: KARPAS-620, plasma cell leukemia t(8;14)(q24;q32); 72 h; read-out: PXD-101 IC50. On the procedure: as §3, §4, §5
For series [17], the system named is advanced cancers. Put plainly: Phase 1 study, tumor reduction in patients with advanced cancers. In kind it is in vivo, human. To be noted: a patient with epithelial mediastinal thymoma. As for the experimental part: A Phase 1 open label, dose escalation, safety, pharmacokinetics (PK), and pharmacodynamics (PD) study of PXD-101 was conducted in patients with advanced cancers. PXD-101 was administered as a 30-minute intravenous (IV) infusion daily for 5-days every 3-weeks. In a subgroup of patients, PXD-101 was administered orally once, twice or thrice on day 1 only, in course 2 or 3. Acetylation of histones extracted from peripheral blood mononuclear cells (PBMNC) was measured by Western blotting. The PK/PD profile of intravenous and oral PXD-101 was evaluated.

Here are results for 2 compounds from patent US9980957B2, “Histone deacetylase (HDAC) inhibitors for the treatment of cancer” (TopoTarget UK Limited, priority 2005, dated 2018).

Read-outs that look alike come from different tables or passages of the source.

In the case of “AVASTIN® (bevacizumab): recombinant humanized antibody to Vascular Endothelial Growth Factor (VEGF)”, in series [1], the “Tumour growth inhibition, in words” value was “significant growth inhibition”.
In general, IC50 refers to the point on the concentration scale where inhibition reaches its midpoint. The term Cmax denotes the highest concentration seen after dosing. Broadly, the bioavailability is the share of a dose that reaches the circulation, judged against a reference dose that is usually intravenous. Consider `O=C(/C=C/c1cccc(S(=O)(=O)Nc2ccccc2)c1)NO` [PXD-101], for which the “Duration of histone H4 hyperacetylation” value in series [2] (IV infusion, dose-dependent) was 4 to 24 h. Further, in series [2] (oral 1000 mg/m^2), the “Duration of histone acetylation above baseline” value lay in the range of 5 to 10 h. For the same compound, the “Histone acetylation above baseline” value in series [2] (oral 1000 mg/m^2) is on record as 40-50%. The half-inhibitory concentration (IC50) in series [3] was 80 to 2430 nM; in series [5] (mean of ten cell lines, read-out: IC50, mean of the ten cell lines), 97 nM; in series [5] (ten cell lines, read-out: IC50, range over the ten cell lines) it was 28 to 196 nM; in [7] it was 123 nM; in [8], 196 nM; in [9] it was 106 nM. The IC50 in [10] was determined as 88 nM; in [11], 45 nM; in [12] it was 29 nM; in series [13], 100 nM; in [14], 141 nM; in series [15], 28 nM. In series [16], the IC50 was 112 nM. The “Accumulation, oral” value is given as “tendency towards accumulation” in [4] (8-hour interval dosing) and “no accumulation” in [4] (12-hour interval dosing). Moreover, the half-life is 1.8 h in series [4] (intravenous, one patient outside the range, read-out: t1/2, one patient (converted)); 0.5 to 1 h in [4] (iv, patients, IV infusion, read-out: Terminal elimination half-life); 1.5 to 2 h in [4] (po, 1000 mg/m2, b.i.d. 1000 mg/m^2 oral on a single day, 5 patients, read-out: t1/2); 2 to 2.6 h in series [4] (po, 1000 mg/m2, t.i.d. 1000 mg/m^2 oral on a single day, 2 patients, read-out: t1/2). Moreover, the Cmax was 6500 to 55800 ng/mL in series [4] (iv, reached at the end of the infusion); 1100 to 2900 ng/mL in series [4] (po, 1000 mg/m2, b.i.d. 1000 mg/m^2 oral on a single day, 5 patients); 1300 to 1800 ng/mL in series [4] (po, 1000 mg/m2, t.i.d. 1000 mg/m^2 oral on a single day, 2 patients). Further, the bioavailability in series [4] (po, 1000 mg/m2, b.i.d. 1000 mg/m^2 oral on a single day, 5 patients, SD 12.5%, read-out: Mean oral bioavailability) stood at 42.8%; in [4] (po, oral single dose, read-out: Mean single dose oral bioavailability), 33%. Besides, the “Oral bioavailability, in words” value in series [4] (patients) is “orally bioavailable”. The “PK dose dependence, in words” value in series [4] (patients, IV) is given as “dose-proportional”. The “Accumulation on repeated IV dosing” value in [4] (repeated IV dosing) is listed as “no drug accumulation”. Further, the “Patients with dose limiting toxicity” value in [6] (both, human, in vivo, iv, 5 days every 3 weeks) turned out to be 3 patients. Also, in series [6] (in vivo), the “Most commonly reported other adverse events” value is “fatigue, nausea, vomiting, constipation, diarrhea and injection site reactions”. Moreover, the Dose limiting toxicity entry in [6] (in vivo, iv) is “short-lived atrial fibrillation”. Moreover, the “Tolerability, in words” value was “well tolerated” in series [6] (in vivo, iv) and “well tolerated” in series [6] (in vivo, po). The compound further displayed an MTD in series [6] (once daily for 5-days 30-minute IV infusion) of 1000 mg/m^2. The “Reduction of mediastinal disease” value in series [17] came to 70%. Besides, in series [17], the “Time on the study” value was “over 1 year”.
